Measured values: ChEMBL document CHEMBL1201862, “PubChem BioAssay data set” (2004)
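Following 48 hours of exposure in 96-well plates, responses at five concentrations were used to interpolate endpoints linearly. GI50 = concentration required for 50% inhibition of growth.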 Activity calls are given as the source filed them. Cut-off read from the data, not from the text of the source: active = GI50 up to about 1.1 µM and inactive = higher.

Key:
Test in all cases: inhibition of tumour cell growth, NCI panel, 48 h
786-0 = system: 786-0
A498 = system: A498
A549 = system: A549
ACHN = system: ACHN
BT-549 = system: BT-549
CAKI-1 = system: CAKI-1
COLO 205 = system: COLO 205
DU-145 = system: DU-145
EKVX = system: EKVX
HCC 2998 = system: HCC 2998
HCT-116 = system: HCT-116
HCT-15 = system: HCT-15
HOP-62 = system: HOP-62
HOP-92 = system: HOP-92
HT-29 = system: HT-29
Hs-578T = system: Hs-578T
IGROV-1 = system: IGROV-1
K562 = system: K562
KM12 = system: KM12
LOX IMVI = system: LOX IMVI
M14 = system: M14
MCF7 = system: MCF7
MDA-MB-231 = system: MDA-MB-231
MDA-MB-435 = system: MDA-MB-435
MDA-N = system: MDA-N
Malme-3M = system: Malme-3M
NCI-H226 = system: NCI-H226
NCI-H23 = system: NCI-H23
NCI-H460 = system: NCI-H460
NCI-H522 = system: NCI-H522
NCI/ADR-RES = system: NCI/ADR-RES
OVCAR-3 = system: OVCAR-3
OVCAR-4 = system: OVCAR-4
OVCAR-5 = system: OVCAR-5
OVCAR-8 = system: OVCAR-8
PC-3 = system: PC-3
RPMI-8226 = system: RPMI-8226
RXF 393 = system: RXF 393
SF-268 = system: SF-268
SF-295 = system: SF-295
SF-539 = system: SF-539
SK-MEL-28 = system: SK-MEL-28
SK-MEL-2 = system: SK-MEL-2
SK-MEL-5 = system: SK-MEL-5
SK-OV-3 = system: SK-OV-3
SN12C = system: SN12C
SNB-19 = system: SNB-19
SNB-75 = system: SNB-75
SW-620 = system: SW-620
T47D = system: T47D
TK-10 = system: TK-10
U-251 = system: U-251
UACC-257 = system: UACC-257
UACC-62 = system: UACC-62
UO-31 = system: UO-31
CCRF-CEM = system: CCRF-CEM
HL-60 = system: HL-60
MOLT-4 = system: MOLT-4

In the case of CN(C)C(=S)N/N=C(\C(=N/NC(=S)N(C)C)c1ccccn1)c1ccccn1, the GI50 (786-0) is reported as 10.4 µM (inactive), the GI50 (A498) is reported as 14.8 µM (inactive) and the GI50 (A549) is reported as 6.55 µM (inactive). The GI50 (ACHN) was 6.61 µM (inactive), the GI50 (BT-549) was 14.6 µM (inactive) and the GI50 (CAKI-1) was 14.8 µM (inactive). For the same molecule, the GI50 (COLO 205) was 2.17 µM (inactive), the GI50 (DU-145) was 4.21 µM (inactive) and the GI50 (EKVX) was 12 µM (inactive). The GI50 (HCC 2998) was 7.55 µM (inactive), the GI50 (HCT-116) was 5.78 µM (inactive) and the GI50 (HCT-15) was 6.81 µM. The GI50 (HOP-62) was 10.9 µM (inactive), the GI50 (HOP-92) was 9.35 µM (inactive) and the GI50 (HT-29) was 3.22 µM (inactive). For the same molecule, the GI50 (Hs-578T) was 1.01 µM (active), the GI50 (IGROV-1) was 8.41 µM (inactive) and the GI50 (K562) was 8.28 µM (inactive). The GI50 (KM12) was 4.82 µM (inactive), the GI50 (LOX IMVI) was 11.8 µM (inactive) and the GI50 (M14) was 11.4 µM (inactive). The GI50 (MCF7) was 1.66 µM (inactive), the GI50 (MDA-MB-231) was 14.7 µM (inactive) and the GI50 (MDA-MB-435) was 10.1 µM (inactive). For the same molecule, the GI50 (MDA-N) was 11.2 µM (inactive), the GI50 (Malme-3M) was 12.9 µM (inactive) and the GI50 (NCI-H226) was 12.6 µM (inactive). For the same molecule, the GI50 (NCI-H23) was 12.3 µM (inactive), the GI50 (NCI-H460) was 2.56 µM (inactive) and the GI50 (NCI-H522) was 2.65 µM (inactive). For the same molecule, the GI50 (NCI/ADR-RES) was 20.7 µM (inactive), the GI50 (OVCAR-3) was 3.85 µM (inactive) and the GI50 (OVCAR-4) was 7.28 µM (inactive). The GI50 (OVCAR-5) was 14 µM (inactive), the GI50 (OVCAR-8) was 7.14 µM (inactive) and the GI50 (PC-3) was 4.26 µM (inactive). The GI50 (RPMI-8226) was 5.3 µM (inactive), the GI50 (RXF 393) was 5.21 µM (inactive) and the GI50 (SF-268) was 6.14 µM (inactive). The GI50 (SF-295) was 11.6 µM (inactive), the GI50 (SF-539) was 25.5 µM (inactive) and the GI50 (SK-MEL-28) was 16.4 µM (inactive). The GI50 (SK-MEL-2) was 10.7 µM (inactive), the GI50 (SK-MEL-5) was 9.02 µM (inactive) and the GI50 (SK-OV-3) was 14.4 µM (inactive). The GI50 (SN12C) was 5.41 µM (inactive), the GI50 (SNB-19) was 12.8 µM (inactive) and the GI50 (SNB-75) was 12.2 µM (inactive). For the same molecule, the GI50 (SW-620) was 6.24 µM (inactive), the GI50 (T47D) was 3.21 µM (inactive) and the GI50 (TK-10) was 8.11 µM (inactive). For the same molecule, the GI50 (U-251) was 3.99 µM (inactive), the GI50 (UACC-257) was 10.7 µM (inactive) and the GI50 (UACC-62) was 6.3 µM (inactive). For the same molecule, the GI50 (UO-31) was 6.7 µM (inactive).
For Cc1cccc(N2C(=O)C3c4[nH]c5ccccc5c4C4CCC(C(C)(C)C)CC4C3C2=O)c1 (stereo not drawn), the GI50 (786-0) was 3.63 µM (inactive), the GI50 (A498) was 13.1 µM (inactive) and the GI50 (A549) was 10.6 µM (inactive). For the same molecule, the GI50 (ACHN) was 4.95 µM (inactive), the GI50 (BT-549) was 19 µM (inactive) and the GI50 (CAKI-1) was 13.1 µM (inactive). For the same molecule, the GI50 (CCRF-CEM) was 8.57 µM (inactive), the GI50 (COLO 205) was 11.9 µM (inactive) and the GI50 (DU-145) was 12.4 µM (inactive). For the same molecule, the GI50 (EKVX) was 14.4 µM (inactive), the GI50 (HCT-116) was 9.29 µM (inactive) and the GI50 (HCT-15) was 29.4 µM. The GI50 (HL-60) was 46.3 µM (inactive), the GI50 (HOP-62) was 3.54 µM (inactive) and the GI50 (HT-29) was 13.5 µM (inactive). The GI50 (Hs-578T) was 9.98 µM (inactive), the GI50 (IGROV-1) was 4.13 µM (inactive) and the GI50 (K562) was 5.89 µM (inactive). For the same molecule, the GI50 (KM12) was 11.9 µM (inactive), the GI50 (LOX IMVI) was 3.32 µM (inactive) and the GI50 (M14) was 13.3 µM (inactive). The GI50 (MCF7) was 12 µM (inactive), the GI50 (MDA-MB-231) was 9.53 µM (inactive) and the GI50 (MDA-MB-435) was 15.2 µM (inactive). For the same molecule, the GI50 (MDA-N) was 15.3 µM (inactive), the GI50 (MOLT-4) was 8.83 µM (inactive) and the GI50 (Malme-3M) was 13 µM (inactive). For the same molecule, the GI50 (NCI-H226) was 18.7 µM (inactive), the GI50 (NCI-H23) was 16 µM (inactive) and the GI50 (NCI-H460) was 6.19 µM (inactive). For the same molecule, the GI50 (NCI-H522) was 11.1 µM (inactive), the GI50 (NCI/ADR-RES) was 15.7 µM (inactive) and the GI50 (OVCAR-3) was 14 µM (inactive). The GI50 (OVCAR-4) was 12.9 µM (inactive), the GI50 (OVCAR-5) was 16.8 µM (inactive) and the GI50 (OVCAR-8) was 3.5 µM (inactive). The GI50 (PC-3) was 12.4 µM (inactive), the GI50 (RPMI-8226) was 12.7 µM (inactive) and the GI50 (RXF 393) was 12.4 µM (inactive). The GI50 (SF-268) was 4.27 µM (inactive), the GI50 (SF-295) was 9.29 µM (inactive) and the GI50 (SK-MEL-28) was 16.3 µM (inactive). The GI50 (SK-MEL-2) was 18.2 µM (inactive), the GI50 (SK-MEL-5) was 15.1 µM (inactive) and the GI50 (SN12C) was 14.2 µM (inactive). The GI50 (SNB-19) was 13.2 µM (inactive), the GI50 (SW-620) was 11.8 µM (inactive) and the GI50 (T47D) was 26.5 µM (inactive). For the same molecule, the GI50 (TK-10) was 14.2 µM (inactive), the GI50 (U-251) was 17.3 µM (inactive) and the GI50 (UACC-257) was 18.7 µM (inactive). The GI50 (UACC-62) was 19.5 µM (inactive) and the GI50 (UO-31) was 15.3 µM (inactive).
